Assay results from article PMC12250302, “Synthesis, Antimicrobial Activities, and Model of Action of Novel Tetralone Derivatives Containing Aminoguanidinium Moiety” (International Journal of Molecular Sciences, 2025).
In brackets after ≈: the same amount, converted by molar mass.

Experiments:
Experiment in all cases: MIC and MBC testing, broth microdilution
[1] = system: P. aeruginosa ATCC 27853; assay type: cell-based, Pseudomonas aeruginosa; conditions: Pseudomonas aeruginosa, ATCC27853, 18 h, read-out: MIC
Excerpt: (§1) The minimum inhibitory concentrations (MICs) and minimum bactericidal concentrations (MBCs) of the synthesized compounds effective against ESKAPE strains, S. aureus clinical isolates, and MRSA were investigated by the broth dilution method. Levofloxacin is a broad-spectrum antibacterial agent that is widely used in the treatment of ESKAPE infections. Therefore, levofloxacin was selected as the positive control for the preliminary activity screening. DMSO (0.1%) was selected as the negative control.
(§2) The minimum inhibitory concentration (MIC) of all synthesized compounds was tested by the broth microdilution method. In brief, compounds dissolved in DMSO were diluted twice continuously in a 96-well plate with MH broth. The ESKAPE pathogens (E. coli ATCC 25922, S. aureus ATCC 29213, K. pneumoniae ATCC 700603, A. baumannii ATCC 19606, P. aeruginosa ATCC 27853, and E. faecium ATCC 35667), clinical S. aureus isolates (LMY45, LMY46, LMY47, and LMY48) and methicillin-resistant Staphylococcus aureus (MRSA-1 and MRSA-2) were cultured in MH broth to logarithmic growth phase and then diluted to 1 × 10^6 CFU/mL in MH broth. Subsequently, the diluted bacterial solution was mixed with the diluted compound solution in a 96-well plate and incubated at 37 °C for a duration of 18 h. The MIC of the compounds was recorded as the lowest concentration at which no visible growth was observed. […] Each concentration was replicated thrice.

[2] = system: E. faecium ATCC 35667; assay type: cell-based, Enterococcus faecium; conditions: Enterococcus faecium, ATCC35667, E. faecium ATCC 35667; for MIC: 18 h, read-out: MIC; for MBC: read-out: MBC
Excerpt: as §1, §2

[3] = system: S. aureus ATCC 29213; assay type: cell-based, Staphylococcus aureus; conditions: Staphylococcus aureus, ATCC29213, S. aureus ATCC 29213; for MIC: 18 h, read-out: MIC; for MBC: read-out: MBC
Excerpt: as §1, §2

[4] = system: MRSA-2; assay type: cell-based, Staphylococcus aureus; conditions: Staphylococcus aureus, MRSA-2; for MIC: 18 h, read-out: MIC; for MBC: read-out: MBC
Method: (§3) Furthermore, the MBC values of the compounds were detected.
as §2, with “h.” for “h. The MIC of the compounds was recorded as the lowest concentration at which no visible growth was observed.”

[5] = system: clinical S. aureus isolate LMY48; assay type: cell-based, Staphylococcus aureus; conditions: Staphylococcus aureus, LMY48; for MIC: 18 h, read-out: MIC; for MBC: read-out: MBC
Method: as §3
as §2, with “h.” for “h. The MIC of the compounds was recorded as the lowest concentration at which no visible growth was observed.”

[6] = system: clinical S. aureus isolate LMY46; assay type: cell-based, Staphylococcus aureus; conditions: Staphylococcus aureus, LMY46; for MIC: 18 h, read-out: MIC; for MBC: read-out: MBC
Method: as §3
as §2, with “h.” for “h. The MIC of the compounds was recorded as the lowest concentration at which no visible growth was observed.”

[7] = system: clinical S. aureus isolate LMY45; assay type: cell-based, Staphylococcus aureus; conditions: Staphylococcus aureus, LMY45; for MIC: 18 h, read-out: MIC; for MBC: read-out: MBC
Method: as §3
as §2, with “h.” for “h. The MIC of the compounds was recorded as the lowest concentration at which no visible growth was observed.”

[8] = system: clinical S. aureus isolate LMY47; assay type: cell-based, Staphylococcus aureus; conditions: Staphylococcus aureus, LMY47; for MIC: 18 h, read-out: MIC; for MBC: read-out: MBC
Method: as §3
as §2, with “h.” for “h. The MIC of the compounds was recorded as the lowest concentration at which no visible growth was observed.”

[9] = system: MRSA-1; assay type: cell-based, Staphylococcus aureus; conditions: Staphylococcus aureus, MRSA-1; for MIC: 18 h, read-out: MIC; for MBC: read-out: MBC
Method: as §3
as §2, with “h.” for “h. The MIC of the compounds was recorded as the lowest concentration at which no visible growth was observed.”

[10] = system: E. coli ATCC 25922; assay type: cell-based, Escherichia coli; conditions: Escherichia coli; for MIC: ATCC25922, 18 h, read-out: MIC; for MBC: ATCC25922, read-out: MBC
Excerpt: as §1, §2

[11] = system: K. pneumoniae ATCC 700603; assay type: cell-based, Klebsiella pneumoniae; conditions: Klebsiella pneumoniae; for MIC: ATCC700603, 18 h, read-out: MIC; for MBC: ATCC700603, read-out: MBC
Excerpt: as §1, §2

[12] = system: A. baumannii ATCC 19606; assay type: cell-based, Acinetobacter baumannii; conditions: Acinetobacter baumannii; for MIC: ATCC19606, 18 h, read-out: MIC; for MBC: ATCC19606, read-out: MBC
Excerpt: as §1, §2

MIC [1] [µg/mL] | MIC [2] [µg/mL] | MIC [3] [µg/mL] | MIC [4] [µg/mL] | MIC [5] [µg/mL] | MIC [6] [µg/mL] | MIC [7] [µg/mL] | MIC [8] [µg/mL] | MIC [9] [µg/mL] | MIC [10] [µg/mL] | MIC [11] [µg/mL] | MIC [12] [µg/mL] | Compound | MBC [2] [µg/mL] | MBC [4] [µg/mL] | MBC [5] [µg/mL] | MBC [6] [µg/mL] | MBC [7] [µg/mL] | MBC [8] [µg/mL] | MBC [3] [µg/mL] | MBC [9] [µg/mL] | other results
> 32 | 4 (≈ 9 µM) | 32 (≈ 72 µM) | 8 (≈ 18 µM) | 4 (≈ 9 µM) | 4 (≈ 9 µM) | 4 (≈ 9 µM) | 4 (≈ 9 µM) | 16 (≈ 36 µM) | > 32 | > 32 | > 32 | [H]/N=C(\N)NN=C1CCCc2cc(OCc3cc(C(F)(F)F)cc(C(F)(F)F)c3)ccc21 [Compound 1K, (E)-2-(6-((3,5-bis(trifluoromethyl)benzyl)oxy)-3,4-dihydronaphthalen-1(2H)-ylidene)hydrazine-1-carboximidamide] | 16 (≈ 36 µM) | 32 (≈ 72 µM) | 8 (≈ 18 µM) | > 32 | 16 (≈ 36 µM) | 8 (≈ 18 µM) |  |  | 
> 32 | 2 (≈ 5.16 µM) | 4 (≈ 10.3 µM) | 2 (≈ 5.16 µM) | 2 (≈ 5.16 µM) | 2 (≈ 5.16 µM) | 2 (≈ 5.16 µM) | ≤ 1 | 1 (≈ 2.58 µM) | 4 (≈ 10.3 µM) | 32 (≈ 82.6 µM) | 8 (≈ 20.7 µM) | [H]/N=C(\N)NN=C1CCCc2cc(OCc3ccccc3Br)ccc21 [Compound 1Q, (E)-2-(6-((2-bromobenzyl)oxy)-3,4-dihydronaphthalen-1(2H)-ylidene)hydrazine-1-carboximidamide] | 8 (≈ 20.7 µM) | 8 (≈ 20.7 µM) | 2 (≈ 5.16 µM) | 4 (≈ 10.3 µM) | 4 (≈ 10.3 µM) | 4 (≈ 10.3 µM) | 8 (≈ 20.7 µM) | 8 (≈ 20.7 µM) | MBC [10]: 4 µg/mL (≈ 10.3 µM); MBC [11]: 32 µg/mL (≈ 82.6 µM); MBC [12]: 8 µg/mL (≈ 20.7 µM)
> 32 | 2 (≈ 5.16 µM) | 2 (≈ 5.16 µM) | 2 (≈ 5.16 µM) | 2 (≈ 5.16 µM) | 2 (≈ 5.16 µM) | 2 (≈ 5.16 µM) | 2 (≈ 5.16 µM) | 2 (≈ 5.16 µM) | 8 (≈ 20.7 µM) | 8 (≈ 20.7 µM) | 4 (≈ 10.3 µM) | [H]/N=C(\N)NN=C1CCCc2cc(OCc3cccc(Br)c3)ccc21 [Compound 1R, (E)-2-(6-((3-bromobenzyl)oxy)-3,4-dihydronaphthalen-1(2H)-ylidene)hydrazine-1-carboximidamide] | 8 (≈ 20.7 µM) | 4 (≈ 10.3 µM) | 16 (≈ 41.3 µM) | 4 (≈ 10.3 µM) | 4 (≈ 10.3 µM) | 8 (≈ 20.7 µM) | 16 (≈ 41.3 µM) | 16 (≈ 41.3 µM) | MBC [10]: 8 µg/mL (≈ 20.7 µM); MBC [11]: 8 µg/mL (≈ 20.7 µM); MBC [12]: 4 µg/mL (≈ 10.3 µM)
> 32 | 2 (≈ 5.54 µM) | 2 (≈ 5.54 µM) | 2 (≈ 5.54 µM) | 4 (≈ 11.1 µM) | 1 (≈ 2.77 µM) | 1 (≈ 2.77 µM) | 1 (≈ 2.77 µM) | 1 (≈ 2.77 µM) | 8 (≈ 22.2 µM) | > 32 | 16 (≈ 44.3 µM) | [H]/N=C(\N)NN=C1CCCc2cc(OCc3ccc(F)cc3Cl)ccc21 [Compound 1T, (E)-2-(6-((2-chloro-4-fluorobenzyl)oxy)-3,4-dihydronaphthalen-1(2H)-ylidene)hydrazine-1-carboximidamide] | 16 (≈ 44.3 µM) | 8 (≈ 22.2 µM) | 4 (≈ 11.1 µM) | 4 (≈ 11.1 µM) | 4 (≈ 11.1 µM) | 4 (≈ 11.1 µM) | 32 (≈ 88.7 µM) | 8 (≈ 22.2 µM) | MBC [10]: > 32 µg/mL; MBC [12]: 32 µg/mL (≈ 88.7 µM)
